Laboratory results: publication PMC6100082, “Pyridine-Ureas as Potential Anticancer Agents: Synthesis and In Vitro Biological Evaluation” (Molecules : A Journal of Synthetic Chemistry and Natural …, 2018)
Where two headings read alike, the source gives them in different places.

Legend:
[1] = system: breast cancer MCF-7 cell line; assay: In vitro anti-proliferative activity, MTT assay; format: cell-based, human; conditions: MCF-7, MTT
Protocol: The in vitro anti-proliferative activity of the newly prepared pyridine-ureas 8a–n was examined against breast cancer MCF-7 cell line. The assay was carried out, as triplicates, utilizing the 3-(4,5-dimethylthiazol-2-yl)-2,5-diphenyltetrazolium bromide (MTT) colorimetric assay as described by T. Mosmann. Doxorubicin and Sorafenib were included in this assay as a reference drug.
MCF-7 (human breast cancer cell line) and WI-38 (human lung fibroblast cell line), were obtained from American Type Culture Collection (Manassas, VA, USA). The cells were propagated in DMEM and supplemented with 10% heat-inactivated FBS (Hyclone), 10 μg/mL of insulin (Manufacturer, Sigma, St. Louis, MO, USA), and 1% penicillin-streptomycin. MTT assay was utilized to examine the in vitro anti-proliferative activity of the newly prepared ureas following the reported procedures. […] The data presented are the mean of at least three separate experiments.

[2] = Homo sapiens, MCF7, 48 h, 48 h of incubation, read-out: IC50 48 h
[3] = Homo sapiens, MCF7, 72 h, 72 h of incubation, read-out: IC50 72 h
[4] = 48 h of incubation, read-out: IC50 48 h

Structure (SMILES) | IC50 [1, 2] [µM] | IC50 [1, 3] [µM] | IC50 [1, 4] [µM] | melting point [°C]
CNC(=O)c1cc(Oc2ccc(NC(=O)Nc3ccc(Cl)c(C(F)(F)F)c3)cc2)ccn1 [Sorafenib, reference compound] | 4.5 ± 0.3 | 1.71 ± 0.15 | – | –
COc1ccc(-c2ccc(NC(=O)Nc3ccccc3)c(C)n2)cc1OC [Compound 8h, 1-(6-(3,4-Dimethoxyphenyl)-2-methylpyridin-3-yl)-3-phenylurea] | > 50 | > 50 | > 50 | 238 to 239
COc1cccc2c1C(=O)c1c(O)c3c(c(O)c1C2=O)C[C@@](O)(C(=O)CO)C[C@@H]3O[C@H]1C[C@H](N)[C@H](O)[C@H](C)O1 [Dox., Doxorubicin, reference compound] | 1.93 ± 0.15 | 1.07 ± 0.07 | – | –
COc1ccc(-c2ccc(NC(=O)Nc3ccc(Cl)cc3)c(C)n2)cc1OC [Compound 8k, 1-(4-Chlorophenyl)-3-(6-(3,4-dimethoxyphenyl)-2-methylpyridin-3-yl) Urea] | 5.63 ± 0.36 | 3.45 ± 0.3 | – | 266 to 267
COc1ccc(NC(=O)Nc2ccc(-c3ccc(OC)cc3)nc2C)cc1 [Compound 8g, 1-(4-Methoxyphenyl)-3-(6-(4-methoxyphenyl)-2-methylpyridin-3-yl) Urea] | 4.12 ± 0.27 | 27.2 ± 1.98 | – | 241 to 242
COc1ccc(-c2ccc(NC(=O)Nc3ccccc3)c(C)n2)cc1 [Compound 8a, 1-(6-(4-Methoxyphenyl)-2-methylpyridin-3-yl)-3-phenylurea] | 3.03 ± 0.22 | 2.83 ± 0.25 | – | 205 to 207
COc1ccc(-c2ccc(NC(=O)Nc3cccc(OC)c3)c(C)n2)cc1 [Compound 8f, 1-(3-Methoxyphenyl)-3-(6-(4-methoxyphenyl)-2-methylpyridin-3-yl) Urea] | > 50 | > 50 | > 50 | 227 to 230
COc1ccc(-c2ccc(NC(=O)Nc3cccc(Cl)c3)c(C)n2)cc1 [Compound 8c, 1-(3-Chlorophenyl)-3-(6-(4-methoxyphenyl)-2-methylpyridin-3-yl) Urea] | 6.4 ± 0.41 | 3.52 ± 0.11 | – | 212 to 214
